{"source": "patent US20220081444A1", "about": "“6,7-DIHYDRO-4H-PYRAZOLO[1,5-A]PYRAZINE INDOLE-2-CARBOXAMIDES ACTIVE AGAINST THE HEPATITIS B VIRUS (HBV)” (AiCuris GmbH & Co. KG, priority 2018, published 2022)", "system": "HBV", "details": "Hepatitis B virus, HePAD38, 144 h, read-out: Cell Activity (EC50)", "note": "Counter-ions that a name gives are not always drawn."}
{"molecule": "O=C(Nc1cc2n(n1)CCN(C(=O)c1cc3c(F)cc(F)cc3[nH]1)C2)C1CCOC1", "note": "(stereo not drawn) [Example 22, N-[5-(4,6-difluoro-1H-indole-2-carbonyl)-4H,5H,6H,7H-pyrazolo[1,5-a]pyrazin-2-yl]oxolane-3-carboxamide]", "values": [{"measurement": "EC50", "value": "< 1", "unit": "µM"}]}
{"molecule": "COC(=O)N1CCC(C(=O)Nc2cc3n(n2)CCN(C(=O)c2cc4ccccc4[nH]2)C3)CC1", "note": "[Example 58, Methyl 4-{[5-(1H-indole-2-carbonyl)-4H,5H,6H,7H-pyrazolo[1,5-a]pyrazin-2-yl]carbamoyl}piperidine-1-carboxylate]", "values": [{"measurement": "EC50", "value": "< 1", "unit": "µM"}]}
{"molecule": "O=C(Nc1cc2n(n1)CCN(C(=O)c1cc3ccccc3[nH]1)C2)C1CCN(C2CCOCC2)CC1", "note": "[Example 69, N-[5-(1H-indole-2-carbonyl)-4H,5H,6H,7H-pyrazolo[1,5-a]pyrazin-2-yl]-1-(oxan-4-yl)piperidine-4-carboxamide]", "values": [{"measurement": "EC50", "value": "< 1", "unit": "µM"}]}
{"molecule": "CC(CO)CNc1cc2n(n1)CCN(C(=O)c1cc3ccccc3[nH]1)C2", "note": "(stereo not drawn) [Example 72, 3-{[5-(1H-indole-2-carbonyl)-4H,5H,6H,7H-pyrazolo[1,5-a]pyrazin-2-yl]amino}-2-methylpropan-1-ol]", "values": [{"measurement": "EC50", "value": "< 1", "unit": "µM"}]}
{"molecule": "O=C(Nc1cc2n(n1)CCN(C(=O)c1cc3ccccc3[nH]1)C2)C1CCN(CC(F)(F)F)CC1", "note": "[Example 63, N-[5-(1H-indole-2-carbonyl)-4H,5H,6H,7H-pyrazolo[1,5-a]pyrazin-2-yl]-1-(2,2,2-trifluoroethyl)piperidine-4-carboxamide]", "values": [{"measurement": "EC50", "value": "< 1", "unit": "µM"}]}
{"molecule": "CCc1cc(F)cc2[nH]c(C(=O)N3CCn4nc(NC(=O)C5CCOC5)cc4C3)cc12", "note": "(stereo not drawn) [Example 23, N-[5-(4-ethyl-6-fluoro-1H-indole-2-carbonyl)-4H,5H,6H,7H-pyrazolo[1,5-a]pyrazin-2-yl]oxolane-3-carboxamide]", "values": [{"measurement": "EC50", "value": "< 1", "unit": "µM"}]}
{"molecule": "O=C(c1cc2ccccc2[nH]1)N1CCn2nc(NCC3CCOCC3)cc2C1", "note": "[Example 15, 5-(1H-indole-2-carbonyl)-N-[(oxan-4-yl)methyl]-4H,5H,6H,7H-pyrazolo[1,5-a]pyrazin-2-amine]", "values": [{"measurement": "EC50", "value": "< 1", "unit": "µM"}]}
{"molecule": "CC(=O)Nc1cc2n(n1)CCN(C(=O)c1cc3ccccc3[nH]1)C2", "note": "[Example 14, N-[5-(1H-indole-2-carbonyl)-4H,5H,6H,7H-pyrazolo[1,5-a]pyrazin-2-yl]acetamide]", "values": [{"measurement": "EC50", "value": "< 1", "unit": "µM"}]}
{"molecule": "CC1(CNc2cc3n(n2)CCN(C(=O)c2cc4ccccc4[nH]2)C3)CCOC1", "note": "(stereo not drawn) [Example 75, 5-(1H-indole-2-carbonyl)-N-[(3-methyloxolan-3-yl)methyl]-4H,5H,6H,7H-pyrazolo[1,5-a]pyrazin-2-amine]", "values": [{"measurement": "EC50", "value": "< 1", "unit": "µM"}]}
{"molecule": "O=C(c1cc2ccccc2[nH]1)N1CCn2nc(NCC3CCCOC3)cc2C1", "note": "(stereo not drawn) [Example 55, 5-(1H-indole-2-carbonyl)-N-[(oxan-3-yl)methyl]-4H,5H,6H,7H-pyrazolo[1,5-a]pyrazin-2-amine]", "values": [{"measurement": "EC50", "value": "< 1", "unit": "µM"}]}
{"molecule": "O=C(Nc1cc2n(n1)CCN(C(=O)c1cc3c(Cl)cc(F)cc3[nH]1)C2)C1CCOC1", "note": "(stereo not drawn) [Example 21, N-[5-(4-chloro-6-fluoro-1H-indole-2-carbonyl)-4H,5H,6H,7H-pyrazolo[1,5-a]pyrazin-2-yl]oxolane-3-carboxamide]", "values": [{"measurement": "EC50", "value": "< 1", "unit": "µM"}]}
{"molecule": "CS(=O)(=O)N1CCC(C(=O)Nc2cc3n(n2)CCN(C(=O)c2cc4ccccc4[nH]2)C3)CC1", "note": "[Example 64, N-[5-(1H-indole-2-carbonyl)-4H,5H,6H,7H-pyrazolo[1,5-a]pyrazin-2-yl]-1-methanesulfonylpiperidine-4-carboxamide]", "values": [{"measurement": "EC50", "value": "< 1", "unit": "µM"}]}
{"molecule": "CCS(=O)(=O)Nc1cc2n(n1)CCN(C(=O)c1cc3ccccc3[nH]1)C2", "note": "[Example 45, N-[5-(1H-indole-2-carbonyl)-4H,5H,6H,7H-pyrazolo[1,5-a]pyrazin-2-yl]ethane-1-sulfonamide]", "values": [{"measurement": "EC50", "value": "< 1", "unit": "µM"}]}
{"molecule": "O=C(c1cc2c(Cl)c(F)ccc2[nH]1)N1CCn2nc(NS(=O)(=O)C3CC3)cc2C1", "note": "[Example 36, N-[5-(4-chloro-5-fluoro-1H-indole-2-carbonyl)-4H,5H,6H,7H-pyrazolo[1,5-a]pyrazin-2-yl]cyclopropanesulfonamide]", "values": [{"measurement": "EC50", "value": "< 1", "unit": "µM"}]}
{"molecule": "CC(=O)N1CC(C(=O)Nc2cc3n(n2)CCN(C(=O)c2cc4ccccc4[nH]2)C3)C1", "note": "[Example 66, 1-acetyl-N-[5-(1H-indole-2-carbonyl)-4H,5H,6H,7H-pyrazolo[1,5-a]pyrazin-2-yl]azetidine-3-carboxamide]", "values": [{"measurement": "EC50", "value": "< 1", "unit": "µM"}]}
{"molecule": "CCc1cccc2[nH]c(C(=O)N3CCn4nc(NCC5(O)CCC5)cc4C3)cc12", "note": "[Example 93, 1-({[5-(4-ethyl-1H-indole-2-carbonyl)-4H,5H,6H,7H-pyrazolo[1,5-a]pyrazin-2-yl]amino}methyl)cyclobutan-1-ol]", "values": [{"measurement": "EC50", "value": "< 1", "unit": "µM"}]}
{"molecule": "CN1CCC(C(=O)Nc2cc3n(n2)CCN(C(=O)c2cc4ccccc4[nH]2)C3)CC1C(F)(F)F", "note": "(stereo not drawn) [Example 81, N-[5-(1H-indole-2-carbonyl)-4H,5H,6H,7H-pyrazolo[1,5-a]pyrazin-2-yl]-1-methyl-2-(trifluoromethyl)piperidine-4-carboxamide]", "values": [{"measurement": "EC50", "value": "< 1", "unit": "µM"}]}
{"molecule": "O=C(Nc1cc2n(n1)CCN(C(=O)c1cc3ccccc3[nH]1)C2)C1CCNCC1F", "note": "(stereo not drawn) [Example 85, 3-fluoro-N-[5-(1H-indole-2-carbonyl)-4H,5H,6H,7H-pyrazolo[1,5-a]pyrazin-2-yl]piperidine-4-carboxamide Trihydrochloride]", "values": [{"measurement": "EC50", "value": "< 1", "unit": "µM"}]}
{"molecule": "CC(C)(C)OC(=O)N1CC(C(=O)Nc2cc3n(n2)CCN(C(=O)c2cc4ccccc4[nH]2)C3)C1", "note": "[Example 7, tert-butyl 3-{[5-(1H-indole-2-carbonyl)-4H,5H,6H,7H-pyrazolo[1,5-a]pyrazin-2-yl]carbamoyl}azetidine-1-carboxylate]", "values": [{"measurement": "EC50", "value": "< 1", "unit": "µM"}]}
{"molecule": "O=C(Nc1cc2n(n1)CCN(C(=O)c1cc3ccccc3[nH]1)C2)C1CCOC1", "note": "(stereo not drawn) [Example 30, N-[5-(1H-indole-2-carbonyl)-4H,5H,6H,7H-pyrazolo[1,5-a]pyrazin-2-yl]oxolane-3-carboxamide]", "values": [{"measurement": "EC50", "value": "< 1", "unit": "µM"}]}
{"molecule": "O=C(Nc1cc2n(n1)CCN(C(=O)c1cc3c(Cl)cccc3[nH]1)C2)C1CCOC1", "note": "(stereo not drawn) [Example 19, N-[5-(4-chloro-1H-indole-2-carbonyl)-4H,5H,6H,7H-pyrazolo[1,5-a]pyrazin-2-yl]oxolane-3-carboxamide]", "values": [{"measurement": "EC50", "value": "< 1", "unit": "µM"}]}
{"molecule": "O=C(c1cc2c(Cl)cc(F)cc2[nH]1)N1CCn2nc(NCC3CCOC3)cc2C1", "note": "(stereo not drawn) [Example 27, 5-(4-chloro-6-fluoro-1H-indole-2-carbonyl)-N-[(oxolan-3-yl)methyl]-4H,5H,6H,7H-pyrazolo[1,5-a]pyrazin-2-amine]", "values": [{"measurement": "EC50", "value": "< 1", "unit": "µM"}]}
{"molecule": "Cc1noc(C)c1S(=O)(=O)Nc1cc2n(n1)CCN(C(=O)c1cc3ccccc3[nH]1)C2", "note": "[Example 46, N-[5-(1H-indole-2-carbonyl)-4H,5H,6H,7H-pyrazolo[1,5-a]pyrazin-2-yl]-3,5-dimethyl-1,2-oxazole-4-sulfonamide]", "values": [{"measurement": "EC50", "value": "< 1", "unit": "µM"}]}
{"molecule": "O=C(c1cc2c(F)cc(F)cc2[nH]1)N1CCn2nc(NCC3CCOC3)cc2C1", "note": "(stereo not drawn) [Example 28, 5-(4,6-difluoro-1H-indole-2-carbonyl)-N-[(oxolan-3-yl)methyl]-4H,5H,6H,7H-pyrazolo[1,5-a]pyrazin-2-amine]", "values": [{"measurement": "EC50", "value": "< 1", "unit": "µM"}]}
{"molecule": "NC(=O)N1CCC(C(=O)Nc2cc3n(n2)CCN(C(=O)c2cc4ccccc4[nH]2)C3)CC1", "note": "[Example 65, N4-[5-(1H-indole-2-carbonyl)-4H,5H,6H,7H-pyrazolo[1,5-a]pyrazin-2-yl]piperidine-1,4-dicarboxamide]", "values": [{"measurement": "EC50", "value": "< 1", "unit": "µM"}]}
{"molecule": "O=C(c1cc2ccccc2[nH]1)N1CCn2nc(NS(=O)(=O)Cc3ccccc3)cc2C1", "note": "[Example 43, N-[5-(1H-indole-2-carbonyl)-4H,5H,6H,7H-pyrazolo[1,5-a]pyrazin-2-yl]-1-phenylmethanesulfonamide]", "values": [{"measurement": "EC50", "value": "< 1", "unit": "µM"}]}
{"molecule": "O=C(c1cc2ccccc2[nH]1)N1CCn2nc(NCC3CCOC3)cc2C1", "note": "(stereo not drawn) [Example 31, 5-(1H-indole-2-carbonyl)-N-[(oxolan-3-yl)methyl]-4H,5H,6H,7H-pyrazolo[1,5-a]pyrazin-2-amine]", "values": [{"measurement": "EC50", "value": "< 1", "unit": "µM"}]}
{"molecule": "O=C(c1cc2c(F)cc(F)cc2[nH]1)N1CCn2nc(NS(=O)(=O)C3CC3)cc2C1", "note": "[Example 35, N-[5-(4,6-difluoro-1H-indole-2-carbonyl)-4H,5H,6H,7H-pyrazolo[1,5-a]pyrazin-2-yl]cyclopropanesulfonamide]", "values": [{"measurement": "EC50", "value": "< 1", "unit": "µM"}]}
{"molecule": "CC1Cn2nc(N)cc2CN1C(=O)c1cc2ccccc2[nH]1", "note": "(stereo not drawn) [Example 16, 5-(1H-indole-2-carbonyl)-6-methyl-4H,5H,6H,7H-pyrazolo[1,5-a]pyrazin-2-amine]", "values": [{"measurement": "EC50", "value": "< 1", "unit": "µM"}]}
{"molecule": "CCc1cccc2[nH]c(C(=O)N3CCn4nc(NCC5CCOC5)cc4C3)cc12", "note": "(stereo not drawn) [Example 17, 5-(4-ethyl-1H-indole-2-carbonyl)-N-[(oxolan-3-yl)methyl]-4H,5H,6H,7H-pyrazolo[1,5-a]pyrazin-2-amine]", "values": [{"measurement": "EC50", "value": "< 1", "unit": "µM"}]}
{"molecule": "O=C(Nc1cc2n(n1)CCN(C(=O)c1cc3ccccc3[nH]1)C2)C1CCn2ccnc2C1", "note": "(stereo not drawn) [Example 68, N-[5-(1H-indole-2-carbonyl)-4H,5H,6H,7H-pyrazolo[1,5-a]pyrazin-2-yl]-5H,6H,7H,8H-imidazo[1,2-a]pyridine-7-carboxamide]", "values": [{"measurement": "EC50", "value": "< 1", "unit": "µM"}]}
{"molecule": "O=C(c1cc2ccccc2[nH]1)N1CCn2nc(NCC3(O)CCC3)cc2C1", "note": "[Example 71, 1-({[5-(1H-indole-2-carbonyl)-4H,5H,6H,7H-pyrazolo[1,5-a]pyrazin-2-yl]amino}methyl)cyclobutan-1-ol]", "values": [{"measurement": "EC50", "value": "< 1", "unit": "µM"}]}
{"molecule": "COC1(CNc2cc3n(n2)CCN(C(=O)c2cc4ccccc4[nH]2)C3)CCOC1", "note": "(stereo not drawn) [Example 94, 5-(1H-indole-2-carbonyl)-N-[(3-methoxyoxolan-3-yl)methyl]-4H,5H,6H,7H-pyrazolo[1,5-a]pyrazin-2-amine]", "values": [{"measurement": "EC50", "value": "< 1", "unit": "µM"}]}
{"molecule": "O=C(Nc1cc2n(n1)CCN(C(=O)c1cc3ccccc3[nH]1)C2)C1CCN(CCO)CC1", "note": "[Example 62, 1-(2-hydroxyethyl)-N-[5-(1H-indole-2-carbonyl)-4H,5H,6H,7H-pyrazolo[1,5-a]pyrazin-2-yl]piperidine-4-carboxamide]", "values": [{"measurement": "EC50", "value": "1 to 10", "unit": "µM"}]}
{"molecule": "O=C(c1cc2ccccc2[nH]1)N1CCn2nc(NCC3(O)CC(F)(F)C3)cc2C1", "note": "[Example 83, 3,3-difluoro-1-({[5-(1H-indole-2-carbonyl)-4H,5H,6H,7H-pyrazolo[1,5-a]pyrazin-2-yl]amino}methyl)cyclobutan-1-ol]", "values": [{"measurement": "EC50", "value": "< 1", "unit": "µM"}]}
{"molecule": "CNC(=O)Nc1cc2n(n1)CCN(C(=O)c1cc3ccccc3[nH]1)C2", "note": "[Example 67, 1-[5-(1H-indole-2-carbonyl)-4H,5H,6H,7H-pyrazolo[1,5-a]pyrazin-2-yl]-3-methylurea]", "values": [{"measurement": "EC50", "value": "< 1", "unit": "µM"}]}
